Results: ChEMBL document CHEMBL1201862, “PubChem BioAssay data set” (2004)
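Cells were grown in 96-well plates and exposed to each compound for 48 hours at five concentrations; endpoints were interpolated linearly between bracketing concentrations, or set to the highest concentration if not reached. Here, GI50 denotes the concentration required for 50% inhibition of growth.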 Active and inactive are the calls of the source. Cut-off read from the data, not from the text of the source: active = GI50 up to about 1.1 µM and inactive = higher.

How the values were obtained:
Test in all cases: NCI anticancer screen, dose series, 48 h
[1] = system: A498
[2] = system: CAKI-1
[3] = system: CCRF-CEM
[4] = system: COLO 205
[5] = system: EKVX
[6] = system: IGROV-1
[7] = system: KM12
[8] = system: MOLT-4
[9] = system: Malme-3M
[10] = system: OVCAR-3
[11] = system: OVCAR-5
[12] = system: OVCAR-8
[13] = system: SF-295
[14] = system: SF-539
[15] = system: SK-OV-3
[16] = system: TK-10
[17] = system: UACC-62
[18] = system: UO-31
[19] = system: SK-MEL-28

Measured: GI50

CC(=O)OCC1OC(NC(=S)N/N=C2\CC(c3ccccc3)Oc3ccccc32)C(OC(C)=O)C(OC(C)=O)C1OC(C)=O (stereo not given)
inactive: [1] > 100 µM | [2] > 100 µM | [3] > 100 µM | [4] > 100 µM | [5] > 100 µM | [6] > 100 µM | [7] > 100 µM | [8] > 100 µM | [9] > 100 µM | [10] > 100 µM | [11] > 100 µM | [12] > 100 µM | [13] > 100 µM | [14] > 100 µM | [15] > 100 µM | [16] > 100 µM | [17] > 100 µM | [18] > 100 µM

O=C1OC(c2ccccc2)=N/C1=C/NC(Cc1ccc(O)cc1)C(=O)O (stereo not given)
inactive: [1] > 100 µM | [2] > 100 µM | [3] > 100 µM | [4] > 100 µM | [5] > 100 µM | [7] > 100 µM | [9] > 100 µM | [10] > 100 µM | [11] > 100 µM | [12] > 100 µM | [13] > 100 µM | [14] > 100 µM | [19] > 100 µM | [15] > 100 µM | [16] > 100 µM | [18] > 100 µM

Cc1nn(C(=O)CC(=O)Nc2ccccc2Cl)c(C)c1/N=N/c1ccccc1Cl
inactive: [1] > 100 µM | [2] > 100 µM | [3] > 100 µM | [4] > 100 µM | [5] > 100 µM | [6] > 100 µM | [7] > 100 µM | [8] > 100 µM | [9] > 100 µM | [10] > 100 µM | [11] > 100 µM | [12] > 100 µM | [13] > 100 µM | [14] 80.9 µM | [19] > 100 µM | [15] > 100 µM | [16] > 100 µM | [17] > 100 µM | [18] > 100 µM

O=C(CC(=O)N1N=C(N2c3ccccc3Sc3ccccc32)CC1c1ccccc1)Nc1ccc(Cl)cc1 (stereo not given)
inactive: [1] > 100 µM | [2] > 100 µM | [3] > 10 µM | [4] > 100 µM | [5] > 100 µM | [6] > 100 µM | [7] > 100 µM | [9] > 100 µM | [10] > 100 µM | [11] > 100 µM | [12] > 100 µM | [13] > 100 µM | [14] > 100 µM | [19] > 100 µM | [15] > 100 µM | [16] > 100 µM | [17] > 100 µM | [18] > 100 µM

CCCS(=O)(=O)/C(=C(\c1ccc(Br)cc1)S(=O)(=O)CCC)c1ccc(Br)cc1
inactive: [1] > 10 µM | [2] > 10 µM | [3] > 10 µM | [4] > 10 µM | [5] > 10 µM | [6] > 10 µM | [7] > 10 µM | [8] > 10 µM | [9] > 10 µM | [10] > 10 µM | [11] > 10 µM | [12] > 10 µM | [13] > 10 µM | [14] > 10 µM | [19] > 10 µM | [15] > 10 µM | [16] > 10 µM | [17] > 10 µM | [18] > 10 µM

CCOC(=O)C1=C(C)N(Cc2ccccc2)C(C)=C(C(=O)OCC)C1c1ccccc1O
inactive: [1] 33.7 µM | [2] 27.2 µM | [3] 27 µM | [4] 13 µM | [5] 24.7 µM | [6] 25.5 µM | [7] 23.7 µM | [8] 11.3 µM | [9] 26 µM | [10] 25.2 µM | [11] > 100 µM | [12] 31.7 µM | [13] 33.1 µM | [14] 27.7 µM | [19] 19.2 µM | [15] 47.2 µM | [16] 47.5 µM | [17] 18.1 µM | [18] 32.1 µM

COc1cc(C(=O)C/C(CCC(=O)Nc2ccccc2[N+](=O)[O-])=N\NC(=O)CC#N)ccc1O
inactive: [1] 40.7 µM | [2] > 100 µM | [3] > 100 µM | [4] > 100 µM | [5] > 100 µM | [6] > 100 µM | [7] > 100 µM | [8] > 100 µM | [9] > 100 µM | [10] > 100 µM | [11] > 100 µM | [12] > 100 µM | [13] > 100 µM | [14] > 100 µM | [19] > 100 µM | [15] > 100 µM | [16] > 100 µM | [17] > 100 µM | [18] > 100 µM

O=C1CC(C[C@H](O)C2CCCCC2O)CC(=O)N1Cc1ccccc1 (stereo not given in full)
inactive: [1] > 100 µM | [2] > 100 µM | [3] > 100 µM | [4] > 100 µM | [5] > 100 µM | [6] > 100 µM | [7] > 100 µM | [8] > 100 µM | [9] > 100 µM | [10] > 100 µM | [11] > 100 µM | [12] > 100 µM | [13] > 100 µM | [14] > 100 µM | [19] > 100 µM | [15] > 100 µM | [16] > 100 µM | [17] > 100 µM | [18] > 100 µM

COC(=O)C1(C(C)C)CCc2c(OC)ccc(OC)c2C1=O (stereo not given)
inactive: [1] > 100 µM | [2] > 100 µM | [3] > 100 µM | [4] > 100 µM | [5] 75.2 µM | [6] > 100 µM | [7] > 100 µM | [8] 74.3 µM | [9] > 100 µM | [10] > 100 µM | [11] > 100 µM | [12] > 100 µM | [13] > 100 µM | [14] > 100 µM | [19] > 100 µM | [15] > 100 µM | [16] > 100 µM | [17] 79.8 µM | [18] > 100 µM

CC(=O)O/C(C)=C\C(=O)O/N=C(\N)c1ccc(C)cc1
inactive: [1] 62.7 µM | [2] > 100 µM | [3] 17.3 µM | [4] 27.9 µM | [5] 92.3 µM | [6] 28.3 µM | [7] 41.8 µM | [8] 23.1 µM | [9] 25.4 µM | [10] 34.7 µM | [11] > 100 µM | [12] 36.6 µM | [13] 35.2 µM | [14] 20.6 µM | [19] 19.6 µM | [15] > 100 µM | [16] 63.8 µM | [17] 22.7 µM | [18] 61.1 µM
